# Measurements: patent US9879050B2, “Substituted urea depsipeptide analogs as activators of the CLPP endopeptidase” (priority 2013, dated 2018)
# Like-named read-outs stand apart in the source and are kept apart here.
# Tests used:
# [1] = Cytotoxicity assay, CellTiter-Glo cell viability; format: cell-based; details: African green monkey
# Protocol: Cytotoxicity was determined by determining the effect of compounds on cell viability. Vero (kidney epithelial cells; ATCC CCL-81) monolayers were trypsinized and 5000 cells/well were seeded (10-15% confluency) into white-wall, flat bottom 96 well microwell plates (Corning) using enriched Dulbecco's Modified Eagle's Medium (Hyclone: DMEM/High Glucose) containing 10% Fetal Bovine Serum (ATCC-30-2020). Plates were incubated overnight at 37° C. in the presence of 5% CO2. Drug-free media was then replaced with media containing serial dilutions of test compound or DMSO carrier. After an additional 72 hours of incubation, viability was indirectly measured using the CellTiter-Glo® Luminescent Cell Viability (Promega) assay. Assay plates were read at peak emission wavelength of 560 nm using a EnVision® Multilabel Plate Reader (Perkin Elmer) or PHERAstar FS Multilabel reader (BMG, Cary, N.C.). […] USA, www.graphpad.com]. For each experiment, compounds were tested in duplicate. IC50 values presented are the range of two biologically independent experiments.
# S. aureus USA 300 ΔClpP = test: Minimal inhibitory concentration, microbroth dilution; format: cell-based, Staphylococcus aureus; details: ClpP inactivated strain
# Protocol: (§1) Minimal inhibitory concentrations (“MICs”) were determined using the microbroth dilution method according to Clinical Laboratory Standards Institute (CLSI; National, C.F. C. L. S., Methods for Dilution Antimicrobial Susceptibility Tests for Bacteria Grow aerobically-Seventh Edition: Approved Standard M7-A7, CLSI, Wayne, Pa., USA, 2008) and were read by visual inspection. Two fold serial dilutions of test compound in 100 μL of the appropriate broth media were first prepared in 96-well round bottom microtiter plates (Nalgene Nunc International, Rochester, N.Y., USA). An equivalent volume (100 μL) of bacterial broth inocula containing approximately 10^5 bacterial cfu/mL was added to each well to give final concentrations of test compound starting at 200 μM. The plates were then incubated aerobically at 37° C. All strains were incubated overnight. After incubations, in all cases the MIC was recorded as the lowest concentration of drug that prevented bacterial growth. The bacterial strains for which MIC was determined as described in Table 4.
# Sa-ClpP [2] = target: T1, Sa-ClpP (Staphylococcus aureus, UniProt Q2G036); test: ADEP displacement fluorescence polarization assay; format: binding, S. aureus
# T1 construct: made in house; host or cells: E. coli BL21 (DE3)
# T1 sequence (Q2G036 whole entry): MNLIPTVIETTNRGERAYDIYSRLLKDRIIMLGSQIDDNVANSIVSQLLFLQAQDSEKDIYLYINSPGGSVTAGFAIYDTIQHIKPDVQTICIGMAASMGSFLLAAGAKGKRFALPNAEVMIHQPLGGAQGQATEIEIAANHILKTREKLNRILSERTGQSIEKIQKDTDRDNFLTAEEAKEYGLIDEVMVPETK
# Protocol: A fluorescence polarization (FP) assay was used to determine the activity of the disclosed compounds in displacing an ADEP analogue from ClpP. Briefly, the assay was performed in black 384 well, flat bottom, low volume plates (Greiner Bio-One, Monroe, N.C., catalog #784076). 20 μL of a pre-equilibrated (1 hr, room temperature) master mix (1 μM Sa-ClpP, 2% DMSO (v/v) and 50 nM FP probe in Tris*HCl, pH 8.0)) was pipetted into each well using a Well-Mate (Thermo Scientific, Waltham, Mass.). Sa-ClpP was prepared as described above for the ClpP activation assay. The FP probe was ADEP 2591 (structure shown above). The ADEP 2591 comprises a TAMRA fluorophore linked to a core based on modified ADEP 2378 via a short alkyl linker. Using pin transfer, approximately 0.4 μL (2% v/v DMSO) of each compound or control was added per well. After addition of compounds and controls, plates were allowed to incubate for an additional 120 minutes at room temperature. All assays were performed in triplicate. Polarization was monitored using an EnVision Multilabel reader (Perkin-Elmer, Waltham, Mass.) by exciting the FP probe at 530±25 nm, and monitoring fluorescence intensity of both parallel and perpendicular polarized light at 579±25 nm. Readout was in millipolarization units (mP).
# Signal gain and G factors were determined in wells containing 20 μM ADEP 2378, which had been previously verified (data not shown) as containing completely unbound ADEP 2591. Data collected was normalized to values obtained from positive (20 μM ADEP 2378) or negative (DMSO) controls. Curves were fit with non-linear regression using the equation “log [inhibitor]vs. Response-variable slope (four parameters)-symmetrical” in the program Prism 6 (GraphPad Software, La Jolla, Calif. USA, www.graphpad.com). The structures for ADEP 2378 and ADEP 2591 are shown above. ADEP 2378 is (E)-N-((S)-1-(((2R,6S,8aS,14aS,20S,23aS)-2,6-dimethyl-5,8,14,19,23-pentaoxooctadecahydro-1H,5H,14H,19H-pyrido[2,1-i]dipyrrolo[2,1-c:2′,1′-1][1]oxa[4,7,10,13]tetraazacyclohexadecin-20-yl)amino)-1-oxo-3-phenylpropan-2-yl)pent-2-enamide. ADEP 2591 is 5-(3-(3-((6S,9S,11aS,17S,20aS)-6,10-dimethyl-5,8,11,16,20-pentaoxo-17-((S)-2-((E)-pent-2-enamido)-3-phenylpropanamido)hexadecahydro-1H,5H,16H-dipyrrolo[2,1-c:2′,1′-1][1]oxa[4,7,10,13]tetraazacyclohexadecin-9-yl)propyl)thioureido)-2-(6-(dimethylamino)-3-(dimethyliminio)-3H-xanthen-9-yl)benzoate.
# Sa-ClpP [3] = target: T1, Sa-ClpP; test: ClpP activation, EnzCheck Protease Assay with Bodipy-FL casein (second described method); format: biochemical, S. aureus
# Protocol: Alternatively, the assay was carried out using EnzCheck Protease Assay (Molecular Probes, Catalog #E6638). The assay was performed in black 384 well, flat bottom, low volume plates (Greiner Bio-One, Monroe, N.C., catalog #784076). 10 μL of Tris.HCl buffer, pH 8.0 with 0.01% Triton X-100 was pipetted into each well using a Well-Mate (Thermo Scientific, Waltham, Mass.). 0.4 μL test compounds or controls (2% DMSO v/v) were added to each well using a Biomek FX liquid handling robot (Beckman Coulter, Indianapolis Ind.). After addition of test compounds and controls, 10 μL of master mix containing 2 μM Sa-ClpP and 2 μM substrate (Bodipy-FL labeled casein) in Tris*HCl buffer, pH 8.0 with 0.01% (v/v) Triton X-100, was pipetted into each well. All assays were performed in triplicate, under linear velocity conditions. Increase in fluorescent signal following activation of Sa-ClpP by test compounds and controls was measured over time period of 30 mins using filters with excitation at 485±15 nm and emission at 520±25 nm on a PHERAstar FS Multilabel reader (BMG, Cary, N.C.). […] Data analysis was done by measuring rate of casein degradation over time (slopes). Computed degradation rates (slopes) were normalized to positive (ADEP4) or negative (DMSO) controls. Using nonlinear regression curve fitting EC50 values and % activation were determined using the equation “log [agonist]vs. Response-variable slope (four parameters)-symmetrical” in the program Prism 6 (GraphPad Software, La Jolla, Calif. USA, www.graphpad.com).
# S. pyogenes ATCC 700294 = test: Minimal inhibitory concentration, microbroth dilution; format: cell-based; details: Streptococcus pyogenes, ATCC700294, read-out: Minimal Inhibitory Concentration S. pyogenes ATCC 700294
# Protocol: (§2) Minimal inhibitory concentrations (“MICs”) were determined using the microbroth dilution method according to Clinical Laboratory Standards Institute (CLSI; National, C.F. C. L. S., Methods for Dilution Antimicrobial Susceptibility Tests for Bacteria Grow aerobically-Seventh Edition: Approved Standard M7-A7, CLSI, Wayne, Pa., USA, 2008) and were read by visual inspection. Two fold serial dilutions of test compound in 100 μL of the appropriate broth media were first prepared in 96-well round bottom microtiter plates (Nalgene Nunc International, Rochester, N.Y., USA). […] The plates were then incubated aerobically at 37° C. All strains were incubated overnight. After incubations, in all cases the MIC was recorded as the lowest concentration of drug that prevented bacterial growth. The bacterial strains for which MIC was determined as described in Table 4.
# S. pneumoniae R6 = test: as above; format: cell-based
# Protocol: as §2
# S. aureus ATCC 29213 = test: as above; format: cell-based; details: Staphylococcus aureus, ATCC29213, read-out: Minimal Inhibitory Concentration S. aureus ATCC 29213
# Protocol: as §1
# [4] = 1 μM Sa-ClpP, 50 nM FP probe ADEP 2591, read-out: ADEP Displacement IC50
# [5] = read-out: ClpP Activation EC50 (converted)
# [6] = Streptococcus pneumoniae, R6; read-out: Minimal Inhibitory Concentration S. pneumoniae R6
SMILES,"IC50 at 72 h ([1]; Vero cells, 72 hours, read-out: Cytotoxicity IC50) [µM]",Minimal Inhibitory Concentration S. aureus USA 300 ΔClpP (S. aureus USA 300 ΔClpP) [µM],IC50 (Sa-ClpP [2]; [4]) [µM],EC50 (Sa-ClpP [3]; [5]) [µM],MIC (S. pyogenes ATCC 700294) [µM],"MIC (S. pneumoniae R6; Streptococcus pneumoniae, R6, read-out: Minimal Inhibitory Concentration S. pneumoniae R6) [µM]",MIC (S. aureus ATCC 29213) [µM],IC50 at 72 h [1] [µM],MIC (S. pneumoniae R6; [6]) [µM],"IC50 at 72 h ([1]; Vero kidney epithelial cells (ATCC CCL-81), Vero cells, 72 hours, read-out: Cytotoxicity IC50) [µM]",IC50 (Sa-ClpP [2]) [µM],EC50 (Sa-ClpP [3]) [µM]
"Cc1ccc(NC(=O)N[C@@H](Cc2cc(F)cc(F)c2)C(=O)N[C@H]2COC(=O)C3C[C@H](C)CN3C(=O)[C@H](C)NC(=O)C3CCCCN3C(=O)C3CCCN3C2=O)cc1 (stereo partly drawn) [Compound 45, (S)-3-(3,5-Difluorophenyl)-N-((2S,6S,8aS,14aS,20S,23aS)-2,6-Dimethyl-5,8,14,19,23-Pentaoxooctadecahydro-1H,5H,14H,19H-Pyrido[2,1-I]Dipyrrolo[2,1-C:2′,1′-L][1]Oxa[4,7,10,13]Tetraazacyclohexadecin-20-Yl)-2-(3-(P-Tolyl)Ureido)Propanamide]",56.8 ± 6.7,100,6.62 ± 0.2,0.54 ± 0.03,0.4,0.1,0.4,,,,,
"C[C@@H]1NC(=O)[C@H](C)N(C)C(=O)C2CCCN2C(=O)[C@@H](NC(=O)[C@H](Cc2cc(F)cc(F)c2)NC(=O)Nc2ccc(OC(F)(F)F)cc2)[C@H](C)OC(=O)C2CCCN2C1=O (stereo partly drawn) [Compound 27, (2S)-3-(3,5-Difluorophenyl)-N-((6S,9S,11aS,17S,18S)-6,9,10,18-Tetramethyl-5,8,11,16,20-Pentaoxohexadecahydro-1H,5H,16H-Dipyrrolo[2,1-C:2′,1′-L][1]Oxa[4,7,10,13]Tetraazacyclohexadecin-17-Yl)-2-(3-(4-(Trifluoromethoxy)Phenyl)Ureido)Propanamide]",,100,7.7 ± 0.2,0.31 ± 0.01,,,,10.5 ± 1.4,0.058,,,
"C[C@H]1CC2C(=O)OC[C@H](NC(=O)[C@H](Cc3cc(F)cc(F)c3)NC(=O)Nc3ccc4c(c3)OCO4)C(=O)N3CCCC3C(=O)N3CCCCC3C(=O)N[C@@H](C)C(=O)N2C1 (stereo partly drawn) [Compound 46, (S)-2-(3-(Benzo[D][1,3]Dioxol-5-Yl)Ureido)-3-(3,5-Difluorophenyl)-N-((2S,6S,8aS,14aS,20S,23aS)-2,6-Dimethyl-5,8,14,19,23-Pentaoxooctadecahydro-1H,5H,14H,19H-Pyrido[2,1-I]Dipyrrolo[2,1-C:2′,1′-L][1]Oxa[4,7,10,13]Tetraazacyclohexadecin-20-Yl)Propanamide]",,200,,,,,,,0.4,71.8 ± 5.4,4.61 ± 0.2,0.32 ± 0.02
"CCc1ccc(NC(=O)N[C@@H](Cc2cc(F)cc(F)c2)C(=O)N[C@@H]2C(=O)N3CCCC3C(=O)N(C)[C@@H](C)C(=O)N[C@@H](C)C(=O)N3C[C@@H](C)CC3C(=O)O[C@H]2C)cc1 (stereo partly drawn) [Compound 30, (S)-3-(3,5-Difluorophenyl)-2-(3-(4-Ethylphenyl)Ureido)-N-((2S,6S,9S,11aS,17S,18S,20aS)-2,6,9,10,18-Pentamethyl-5,8,11,16,20-Pentaoxohexadecahydro-1H,5H,16H-Dipyrrolo[2,1-C:2′,1′-L][1]Oxa[4,7,10,13]Tetraazacyclohexadecin-17-Yl)Propanamide]",,50,,,,,,28.8 ± 3.7,0.008,,4 ± 0.1,0.43 ± 0.02
"CCc1ccc(NC(=O)N[C@@H](Cc2cc(F)cc(F)c2)C(=O)N[C@@H]2C(=O)N3CCCC3C(=O)N(C)[C@@H](C)C(=O)N[C@@H](C)C(=O)N3CCCC3C(=O)O[C@H]2C)cc1 (stereo partly drawn) [Compound 29, (2S)-3-(3,5-Difluorophenyl)-2-(3-(4-Ethylphenyl)Ureido)-N-((6S,9S,11aS,17S,18S)-6,9,10,18-Tetramethyl-5,8,11,16,20-Pentaoxohexadecahydro-1H,5H,16H-Dipyrrolo[2,1-C:2′,1′-L][1]Oxa[4,7,10,13]Tetraazacyclohexadecin-17-Yl)Propanamide]",,100,,,,,,26.8 ± 1.3,0.031,,5.9 ± 0.2,0.25 ± 0.02
